According to PubChem BioAssay (NCI):
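Growth conditions: 96-well plates. Treatment: test compound, 48 hours, 5 concentrations. Analysis: linear interpolation between bracketing concentrations; unreached endpoints set to highest concentration. At the GI50, growth is halved. TGI marks complete inhibition of growth.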

Columns and labels:
Test in all cases: NCI tumour cell line growth inhibition, 48 h
A549 NSCLC = tested on: A549 NSCLC
OVCAR-3 ovarian = tested on: OVCAR-3 ovarian
HT29 colon = tested on: HT29 colon
UACC-257 melanoma = tested on: UACC-257 melanoma
SN12C renal = tested on: SN12C renal
NCI-H460 lung = tested on: NCI-H460 lung
U251 CNS = tested on: U251 CNS
KM12 colon = tested on: KM12 colon
HOP-92 NSCLC = tested on: HOP-92 NSCLC
MDA-N = tested on: MDA-N

Row | SMILES | TGI (A549 NSCLC) [µM] | TGI (OVCAR-3 ovarian) [µM] | TGI (HT29 colon) [µM] | TGI (UACC-257 melanoma) [µM] | TGI (SN12C renal) [µM] | TGI (NCI-H460 lung) [µM] | TGI (U251 CNS) [µM] | GI50 (KM12 colon) [µM] | TGI (KM12 colon) [µM] | GI50 (HOP-92 NSCLC) [µM] | TGI (HOP-92 NSCLC) [µM] | GI50 (A549 NSCLC) [µM] | GI50 (OVCAR-3 ovarian) [µM] | GI50 (HT29 colon) [µM] | GI50 (UACC-257 melanoma) [µM] | GI50 (SN12C renal) [µM] | GI50 (NCI-H460 lung) [µM] | GI50 (U251 CNS) [µM] | TGI (MDA-N) [µM]
1 | COc1c(C(C)C)cc2c3c1OC(=O)[C@@]31CCCC(C)(C)C1CC2 (some centres undefined) | 60.1 | 83.3 | > 100 | 54.1 | > 100 | > 100 | > 100 |  |  |  |  |  |  |  |  |  |  |  | 
2 | COc1ccc(-c2nn(-c3ccc(NC(=O)Nc4cc(C(F)(F)F)cc(C(F)(F)F)c4)cc3)cc2-c2ccncc2)cc1Cl | > 100 | 8.85 | > 100 | 12.5 | 16.6 | 5.95 | 5.48 | 2.1 | 7.73 | 1.06 | 4.35 | 2.84 | 2.32 | 2.75 | 3.5 | 3.13 | 1.91 | 1.85 | 
3 | O=c1c(C(c2ccc(Cl)cc2)c2c(O)c3ccccc3n(-c3ccccc3)c2=O)c(O)c2ccccc2n1-c1ccccc1 | > 100 | > 100 |  |  | > 100 |  | > 100 |  | > 100 |  | > 100 |  |  |  |  |  |  |  | 
4 | Cn1c2ccccc2c(=O)c2cccc(C(=O)NC(CCCN=C(N)N)C(=O)O)c21 (centres undefined) | > 100 | > 100 | > 100 | > 100 | > 100 | > 100 | > 100 |  | > 100 |  |  |  |  |  |  |  |  |  | > 100
5 | Nc1ccc(S(=O)(=O)Nc2nccs2)cc1 | > 100 | > 100 | > 100 | > 100 | > 100 | > 100 | > 100 |  | > 100 |  |  |  |  |  |  |  |  |  | > 100
6 | O=C(O)/C=c1/c2ccccc2n2nc3ccccc3c12 | > 100 | > 100 | > 100 | 70 | 88.8 | > 100 | > 100 |  | 80.7 |  |  |  |  |  |  |  |  |  | > 100
7 | COc1cccc(/C=N/n2c(C)n[nH]c2=O)c1 | > 100 | > 100 | > 100 | > 100 | > 100 | > 100 | > 100 |  | > 100 |  |  |  |  |  |  |  |  |  | > 100
8 | CCCCN=C(c1ccccc1)N1CCOCC1 |  | > 100 | > 100 | > 100 | > 100 | > 100 | > 100 |  | > 100 |  |  |  |  |  |  |  |  |  | > 100
9 | CC(C)(C)C(=O)CC1=Nc2ccccc2SC1(O)CC(=O)C(C)(C)C (centres undefined) | 51 | 75.3 | 31.5 | > 100 | 73.2 | 38.5 | > 100 |  | > 100 |  |  |  |  |  |  |  |  |  | > 100
10 | COC1C=COC2(C)Oc3c(C)c(O)c4c(O)c(c(C5SCCS5)c(O)c4c3C2=O)NC(=O)C(C)=C/C=C\C(C)C2OC(C)(C)OC(C2C)C(C)C(OC(C)=O)C1C (centres undefined) | 22.6 | > 100 |  | 7.89 | 16.6 | 63.2 | > 100 |  | > 100 |  | 24.9 |  |  |  |  |  |  |  | 
11 | O=C1O[C@H](c2ccc3c(c2)OCO3)[C@H]2CO[C@@H](c3ccc4c(c3)OCO4)[C@@H]12 | > 100 |  | > 100 | > 100 | > 100 | > 100 | > 100 |  | > 100 |  | > 100 |  |  |  |  |  |  |  | > 100
12 | Cc1ccc(S(=O)(=O)NC(=O)N[C@@H](Cc2cnc[nH]2)C(=O)O)cc1 | > 100 |  | > 100 | > 100 | > 100 | > 100 | > 100 |  | > 100 |  | > 100 |  |  |  |  |  |  |  | > 100
13 | CN1[C@@H]2C[C@@H](OC(=O)[C@H](CO)c3ccccc3)C[C@H]1[C@@H]1O[C@@H]12 | > 100 | > 100 | > 100 | > 100 | > 100 |  |  |  | > 100 |  | > 100 |  |  |  |  |  |  |  | > 100
14 | Nc1[nH]nc2nc3ccc(C(F)(F)F)cc3nc12 | > 100 |  | > 100 | 45.4 | > 100 | 52.9 | > 100 |  | > 100 |  | 78 |  |  |  |  |  |  |  | > 100
15 | COc1cc(OC)c(C2c3cc4c(cc3OC(N3CCCC3)C2C)OCO4)c(OC)c1 (centres undefined) | 87.9 | 20.5 | 28.7 | 73 | 47.9 | 32.5 |  |  | 30.2 |  |  |  |  |  |  |  |  |  | 35.4
16 | COc1ccc(C2COc3cc(O)c(O)cc3C2)cc1 (centres undefined) | 188 | 28.1 | 204 | 181 | 166 | 213 | 77.8 |  | 164 |  | 24 |  |  |  |  |  |  |  | 
17 | Cc1ccc(O)c(-c2cscn2)c1 | > 100 | > 100 | > 100 | > 100 | > 100 | > 100 |  |  |  |  | > 100 |  |  |  |  |  |  |  | > 100
18 | CC(C)=CCNc1ncnc2c1ncn2CCC#N | > 100 | > 100 | > 100 |  | > 100 | > 100 | > 100 |  | > 100 |  | > 100 |  |  |  |  |  |  |  | > 100
19 | O=[N+]([O-])/C(C(Cl)=C(Cl)Cl)=C(\N1CCCCC1)n1cncn1 | 39.8 | 32.2 | 37.5 | 36.6 | 33.4 | 72.1 | 29.7 |  | 40.8 |  |  |  |  |  |  |  |  |  | 32.8
20 | COc1ccc(/C=C2\N=C(SC)NC2=O)cc1 | > 100 | > 100 | > 100 |  | > 100 |  | > 100 |  | > 100 |  |  |  |  |  |  |  |  |  | > 100
21 | CSc1ncnc2c1ncn2CCC#N | > 100 | > 100 | > 100 | > 100 | > 100 | > 100 |  |  | > 100 |  | > 100 |  |  |  |  |  |  |  | > 100
22 | CC1CCCC(CC(=O)O)(CC(=O)O)C1 (centres undefined) | > 100 |  | > 100 | > 100 | > 100 | > 100 | > 100 |  | > 100 |  | > 100 |  |  |  |  |  |  |  | > 100
23 | COC(=O)C1CCCN1C(=O)C(Cc1cn(S(=O)(=O)c2ccc(C)cc2)cn1)NC(=O)OC(C)(C)C (centres undefined) | > 100 |  | > 100 | > 100 | > 100 | > 100 | > 100 |  | > 100 |  | > 100 |  |  |  |  |  |  |  | > 100
